{"source": "patent US4476117A", "about": "“Dimers of peptide amides” (Imperial Chemical Industries PLC, priority 1982, dated 1984)", "assay": "tolerance in the rat, subcutaneous dose", "assay_type": "in vivo", "experimental": "As an indication of the lack of toxicity of a specific compound of the invention, namely [diallyl-Tyr-Gly-Gly-Phe-Leu-NH-CH2 -]2, that compound is tolerated in the rat at a subcutaneous dose of at least 15 mg./kg.", "note": "Numbered stars: 1 amine (or outer) side, 2 acyl side, 3 side chain; on linkers, the order of the positions; unused ones are H or OH. Bridge positions count the residues as written; N and C are the ends. Peptide text beside a SMILES is read from it. I, II: the chains in the order shown. * marks the point of attachment. Tyr(Nα,Nα-allyl2) = C=CCN(CC=C)[C@@H](Cc1ccc(O)cc1)C(=O)*; Ethylenediamine = C(CN[*:2])N[*:1]", "data": [{"compound": "C=CCN(CC=C)[C@@H](Cc1ccc(O)cc1)C(=O)NCC(=O)NCC(=O)N[C@@H](Cc1ccccc1)C(=O)N[C@@H](CC(C)C)C(=O)NCCNC(=O)[C@H](CC(C)C)NC(=O)[C@H](Cc1ccccc1)NC(=O)CNC(=O)CNC(=O)[C@H](Cc1ccc(O)cc1)N(CC=C)CC=C", "note": "[Example 1, (diallyl-Tyr-Gly-Gly-Phe-Leu-NH-CH2 -)2 bis-trifluoroacetate] (I: {Tyr(Nα,Nα-allyl2)}-GGFL / II: {Tyr(Nα,Nα-allyl2)}-GGFL; linker I:C-II:C via Ethylenediamine)", "values": [{"measurement": "tolerated subcutaneous dose", "result": "at least 15 mg./kg."}]}]}
